Active and inactive are the calls of the source. The rule behind the calls is not given here.
Legend:
[1] = system: HeLa; assay: Induction of DNA double strand breaks in human HeLa cells after 1 hr by neutral comet assay; type: functional, cell-based
[2] = Induction of chromosome damage in BRCA2 deficient Chinese hamster V-C8 cells assessed as number of radials per 100 metaphases at 5 nM for 1 hr followed by post incubation in drug-free media for 24 hrs; type: functional, Cricetulus griseus
[3] = system: HeLa; assay: Reduction of cellular viability in human HeLa cells at 20 nM after 1 hr by MTT assay; type: functional
[4] = Induction of chromosome damage in BRCA2 deficient Chinese hamster V-C8 cells assessed as number of damaged chromosomes per 100 metaphases at 2 nM for 1 hr followed by post incubation in drug-free media for 24 hrs; type: functional, Cricetulus griseus
[5] = system: CCRF-CEM; assay: Induction of DNA double strand breaks in human CEM cells assessed as phosphorylated histone H2AX formation after 1 hr by immunostaining; type: functional, cell-based
[6] = system: V79; assay: Induction of chromosome damage in Chinese hamster V79 cells assessed as number of radials per 100 metaphases at 100 nM for 1 hr followed by post incubation in drug-free media for 24 hrs; type: functional, Cricetulus griseus
[7] = system: CHO-AA8; assay: Induction of DNA double strand breaks in Chinese hamster AA8 cells assessed as phosphorylated histone H2AX formation after 1 hr by immunostaining; type: functional, cell-based; settings: Cricetulus griseus
[8] = Effect on cell cycle progression in Chinese hamster homologous recombination repair XRCC3 gene deficient irs1SF cells assessed as increase in accumulation at G2/M phase at 6 nM for 1 hr followed by post incubation in drug-free media for 24 hrs relative to control; type: functional, Cricetulus griseus
[9] = system: HeLa; assay: Reversal of induction of DNA double strand breaks in human HeLa cells at >50 nM in presence of aphidicolin after 1 hr by neutral comet assay; type: functional, cell-based
[10] = system: HeLa; assay: Induction of DNA double strand breaks in human S-phase synchronized HeLa cells by alkaline comet assay; type: functional, cell-based
[11] = system: CHO-AA8; assay: Effect on cell cycle distribution in Chinese hamster AA8 cells assessed as isotoxic dose after 1 hr; type: functional, Cricetulus griseus
[12] = system: CHO-AA8; assay: Effect on cell cycle progression in Chinese hamster AA8 cells assessed as accumulation at S phase at 140 nM; type: functional, cell-based; settings: Cricetulus griseus
[13] = system: V79; assay: Induction of chromosome damage in Chinese hamster V79 cells assessed as number of radials per 100 metaphases at 50 nM for 1 hr followed by post incubation in drug-free media for 24 hrs; type: functional, Cricetulus griseus
[14] = system: CHO-AA8; assay: Effect on cell cycle progression in Chinese hamster AA8 cells assessed as accumulation at G2 phase at 140 nM; type: functional, cell-based; settings: Cricetulus griseus
[15] = system: V79; assay: Induction of chromosome damage in Chinese hamster V79 cells assessed as number of damaged chromosomes per 100 metaphases at 100 nM for 1 hr followed by post incubation in drug-free media for 24 hrs; type: functional, Cricetulus griseus
[16] = Effect on cell cycle distribution in Chinese hamster homologous recombination repair XRCC3 gene deficient irs1SF cells after 1 hr followed by post incubation in drug-free media; type: functional, Cricetulus griseus
[17] = Induction of chromosome damage in BRCA2 deficient Chinese hamster V-C8 cells assessed as number of damaged chromosomes per 100 metaphases at 1 nM for 1 hr followed by post incubation in drug-free media for 24 hrs; type: functional, Cricetulus griseus
[18] = system: CHO-AA8; assay: Effect on cell cycle progression in Chinese hamster AA8 cells assessed as increase in accumulation at G2/M phase at 6 nM for 1 hr followed by post incubation in drug-free media for 6 hrs relative to control; type: functional, cell-based; settings: Cricetulus griseus
[19] = Effect on cell cycle progression in Chinese hamster homologous recombination repair XRCC3 gene deficient irs1SF cells assessed as increase in accumulation at S phase at 6 nM for 1 hr followed by post incubation in drug-free media for 6 hrs relative to control; type: functional, Cricetulus griseus
[20] = Induction of chromosome damage in BRCA2 deficient Chinese hamster V-C8 cells assessed as number of radials per 100 metaphases at 10 nM for 1 hr followed by post incubation in drug-free media for 24 hrs; type: functional, Cricetulus griseus
[21] = Induction of chromosome damage in BRCA2 deficient Chinese hamster V-C8 cells assessed as number of damaged chromosomes per 100 metaphases at 100 nM for 1 hr followed by post incubation in drug-free media for 24 hrs; type: functional, Cricetulus griseus
[22] = Cytotoxicity in homologous recombination repair XRCC3 gene deficient Chinese hamster irs1SF cells assessed as cell viability by MTT assay relative to wild type cells; type: functional, Cricetulus griseus
[23] = system: CHO-AA8; assay: Induction of DNA double strand breaks in Chinese hamster AA8 cells at 100 nM after 1 hr by comet assay; type: functional, Cricetulus griseus
[24] = system: Lymphocyte; assay: Induction of DNA double strand breaks in nonproliferating human lymphocytes at 100 nM by alkaline comet assay; type: functional, cell-based
[25] = Cytotoxicity in homologous recombination repair BRCA2 gene deficient Chinese hamster V-C8 cells assessed as cell viability by MTT assay relative to wild type cells; type: functional, Cricetulus griseus
[26] = system: CCRF-CEM; assay: Induction of DNA double strand breaks in human CEM cells at 100 nM by alkaline comet assay; type: functional, cell-based
[27] = system: HeLa; assay: Induction of DNA double strand breaks in human HeLa cells assessed as phosphorylated histone H2AX formation after 1 hr by immunostaining; type: functional, cell-based
[28] = system: V79; assay: Induction of chromosome damage in Chinese hamster V79 cells assessed as number of radials per 100 metaphases at 10 nM for 1 hr followed by post incubation in drug-free media for 24 hrs; type: functional, Cricetulus griseus
[29] = Cytotoxicity in homologous recombination repair RAD51C gene deficient Chinese hamster CL-V4B cells assessed as cell viability by MTT assay relative to wild type cells; type: functional, Cricetulus griseus
[30] = system: HeLa; assay: Reduction of DNA synthesis in human HeLa cells at 30 nM after 1 hrs […]; type: functional; design: scale not given: the % may be the effect or the level left
[31] = Induction of chromosome damage in BRCA2 deficient Chinese hamster V-C8 cells assessed as number of radials per 100 metaphases at 2 nM for 1 hr followed by post incubation in drug-free media for 24 hrs; type: cell-based, Cricetulus griseus; settings: v-c8, 1 h, 0.002 µM
[32] = Induction of chromosome damage in BRCA2 deficient Chinese hamster V-C8 cells assessed as number of radials per 100 metaphases at 1 nM for 1 hr followed by post incubation in drug-free media for 24 hrs; type: functional, Cricetulus griseus
[33] = system: V79; assay: Induction of chromosome damage in Chinese hamster V79 cells assessed as number of damaged chromosomes per 100 metaphases at 10 nM for 1 hr followed by post incubation in drug-free media for 24 hrs; type: functional, Cricetulus griseus
[34] = Induction of DNA double strand breaks in Chinese hamster homologous recombination repair XRCC3 gene deficient irs1SF cells at 100 nM after 1 hr by comet assay; type: functional, Cricetulus griseus
[35] = system: V79; assay: Induction of chromosome damage in Chinese hamster V79 cells assessed as number of damaged chromosomes per 100 metaphases at 50 nM for 1 hr followed by post incubation in drug-free media for 24 hrs; type: functional, Cricetulus griseus
[36] = Induction of chromosome damage in BRCA2 deficient Chinese hamster V-C8 cells assessed as number of damaged chromosomes per 100 metaphases at 5 nM for 1 hr followed by post incubation in drug-free media for 24 hrs; type: functional, Cricetulus griseus
[37] = Cytotoxicity in homologous recombination repair XRCC2 gene deficient Chinese hamster irs1 cells assessed as cell viability by MTT assay relative to wild type cells; type: functional, Cricetulus griseus

**Q.** What does the source list for `COc1cc2c(cc1O)CCN[C@]21CS[C@@H]2c3c(OC(C)=O)c(C)c4c(c3[C@H](COC1=O)N1[C@@H]2[C@H]2c3c(cc(C)c(OC)c3O)C[C@@H]([C@@H]1O)N2C)OCO4` [TRABECTEDIN]?
**A.** Activity [1]: Dose-dependent effect; Activity [2]: 2; Activity [3]: 50%; Activity [4]: 42; Activity [5]: Active; Activity [6]: 24; Activity [7]: Active; Activity [8]: 35%; Activity [9]: Active; Activity [10]: Toxic; Activity [11]: 140 nM; Activity [12]: Active; Activity [13]: 27; Activity [14]: Active; Activity [15]: 57; IC50 [16]: 6 nM; Activity [17]: 14; Activity [18]: inactive; Activity [19]: 65%; Activity [20]: 3; Activity [21]: 100; Fold change [22]: 23; Activity [23]: 20%; Activity [24]: inactive; Fold change [25]: 18; Activity [26]: Active; Activity [27]: Active; Activity [28]: 0; Fold change [29]: 8; Activity [30]: 50%; Activity [31]: 1; Activity [32]: 1; Activity [33]: 1; Activity [34]: 19%; Activity [35]: 50; Activity [36]: 90; Fold change [37]: 8
